Measured values taken from patent US9738670B2, “Pentaaza macrocyclic ring complexes possessing oral bioavailability” (Galera Labs, LLC, priority 2015, dated 2017).

Assay: Intraduodenal (id) bioavailability screen in minipigs, oil formulations, vs iv parent dichloro complex
Assay type: in vivo, Gottingen minipig
Settings: for Mini-Pig BioA: id 10 mg/kg, 10% by weight formulation, AUC0->24 h vs iv 1 mg/kg parent chloro complex
Description: Compounds were screened for oral bioavailability by injecting the formulated prodrugs directly into the duodenum (intraduodenal or id administration) of the minipig test subjects, thus bypassing the acidic environment of the stomach and thereby eliminating potentially misleading oral bioavailability results that could arise from alteration of the test article drug in the acid environment of the stomach.
The studies were conducted at Xenometrics LLC (Stillwell, Kans.) and the Id bioavailability was determined using various axial ligand derivative complexes of GC4419, GC4444, GC4403 and GC4401.
*Where the iv dose is 1 mg of test article drug per kilogram body weight of the mini-pig, and the dose administered id is 10 mg of test article drug per kg body weight of the mini-pig.
Male Gottingen minipigs (4-5 mo old, 9-12 kg weight) were purchased from Marshall BioResources and housed at Xenometrics. […] The distal end was exteriorized with a reusable accessible hub (see surgical details below). During a recovery period of at least 2 weeks the minipigs were handled daily to acclimate them to the test procedures, i.e., id dosing and blood collections. For each experiment, each minipig received a test article drug dissolved or suspended in an excipient vehicle. […] All dosing experiments were conducted in fasted animals. Food was withdrawn from the minipigs 16 hours before dosing. The minipigs had ad libitum access to water. Dosed minipigs were allowed access to food 6 hour after dosing. The test article was administered at a dose of 10 mg/kg parent drug in 0.1 m L/kg vehicle (e.g., 1.5 mL in 15 kg minipig) as a bolus injection (˜1 minute) via the id cannula. The actual amount of total test article drug administered varied with the formula weight of the prodrug. An equal volume of excipient vehicle was used to flush the cannula after the test article was administered. Approximately 6 hours later, corn oil was used to flush the cannula. After approximately 24 hours post-dose, the catheter was flushed with sterile saline solution and capped. At the following time-points 0.25, 0.5, 1, 2, 4, 8, 24 and 48 hour post-injection, 2 mL blood samples were collected by cranial vena cava puncture (4 mL Sodium heparin Vacutainer, 20 g 1.5″ needle) after the skin surface was wiped with ethanol. The minipig was placed in a sling in a recumbent position without anesthesia for the collection of blood samples. The minipigs were never used more than once per 7 days for experimentation. The blood samples were kept on ice until processed for plasma. Blood samples were centrifuged at 1200×g for ten minutes at 4° C. and plasma samples were transferred to 96 well plate tubes, capped and stored at −20° C. until shipment on dry ice to the analytical laboratory used for measuring the concentration of drug in the plasma. The concentration of the parent manganese pentaaza macrocylic ring complex (independent of the composition of the axial ligands) was measured in plasma using a validated HPLC/MS/MS method that is linear between 50 ng/mL and 20,000 ng/mL.
The oils used for preparing the dosing solutions were used as supplied from commercial sources. The Capmul MCM (NF) is a mixture of mono/diglycerides of caprylic/capric acids and was supplied by ABITEC Corporation, Janesville, Wis. The Miglyol 812 N is a mixture of caprylic/capric acid triglycerides and was supplied by Cremer Oleo Division, Eatontown, N.J. Labrafil M 2125 CS (NF) is chemically defined to be linoleoyl polyoxyl-6 glycerides NF and was supplied by Gattefosse, SAINT-PRIEST Cedex, France. Peceol is chemically defined to be the monoglyceride, glyceryl monooleate NF, and was supplied by Gattefosse, SAINT-PRIEST Cedex, France. Maisine 35-1 is chemically defined to be the monoglyceride glyceryl monolinoleate (NF) and was supplied by Gattefosse, SAINT-PRIEST Cedex, France. Labrasol (NF) is chemically defined to be caprylocaproyl polyoxyl-8 glycerides NF and was supplied by Gattefosse, SAINT-PRIEST Cedex, France. […]

Row | Mini-Pig BioA (base oil Capmul MCM) [%] | Mini-Pig BioA (base oil Maisine 35-1) [%] | Mini-Pig BioA (base oil Peceol) [%] | Mini-Pig BioA (base oil Labrafil M2125 CS) [%] | Mini-Pig BioA (base oil Miglyol 812N) [%] | bioavailability / absorption, in words (minipig id dosing, comparison between axial ligands) | Compound
1 | 25 | 31 | 28 |  |  |  | Manganese(II)bis-phenylglyoxaloto[(4aS,13aS,17aS,21aS)-1,2,3,4,4a,5,6,12,13,13a,14, 15,16,17,17a,18,19,20,21,21a-Eicosahydro-11,7-nitrilo-7H-dibenzo[b,h][1,4,7,10] tetraazacyclohepta-decine-KN5, KN13, KN18, KN21, KN22]- [GC4719]
2 | 36 |  |  |  |  |  | Manganese(II)bis-racemic-phenylglycinato[2S, 21S-Dimethyl(4aR,13aR,17aR,21aR)-1,2,3,4,4a,5,6,12,13,13a,14,15,16,17,17a,18,19,20,21,21a-Eicosahydro-11,7-nitrilo-7H-dibenzo[b,h][1,4,7,10] tetraazacycloheptadecine-KN5, KN13, KN18, KN21, KN22]- [GC4715]
3 | 12 |  |  |  |  |  | Manganese(II)bis-dodecanoato[(4aS,13aS,17aS,21aS)-1,2,3,4,4a,5,6,12,13, 13a,14,15,16,17,17a,18,19,20,21,21a-Eicosahydro-11,7-nitrilo-7H-dibenzo[b,h][1,4,7,10] tetraazacycloheptadecine-KN5, KN13, KN18, KN21, KN22]- [GC4708]
4 | 43 |  | 29 | 25 | 42 | much better absorbed | Manganese(II)bis-L-phenylglycinato[(4aS,13aS,17aS,21aS)-1,2,3,4,4a,5,6,12,13,13a, 14,15,16,17,17a,18,19,20,21,21a-Eicosahydro-11,7-nitrilo-7H-dibenzo[b,h][1,4,7,10] tetraazacyclo-heptadecine-KN5, KN13, KN18, KN21, KN22]- [GC4702]
5 | 23 |  | 24 |  |  |  | Manganese(II)bis-racemic-2-phenylpropionato[(4aS,13aS,17aS,21aS)-1,2,3,4,4a,5,6,12,13,13a,14,15,16,17,17a,18,19,20,21,21a-Eicosahydro-11,7-nitrilo-7H-dibenzo[b,h][1,4,7,10] tetraazacycloheptadecine-KN5, KN13, KN18, KN21, KN22]- [GC4705]
6 | 32 | 28 |  |  |  |  | Manganese(II)bis-phenylacetato[(4aS,13aS,17aS,21aS)-1,2,3,4,4a,5,6,12,13,13a,14, 15,16,17,17a,18,19,20,21,21a-Eicosahydro-11,7-nitrilo-7H-dibenzo[b,h][1,4,7,10] tetraazacyclo-heptadecine-KN5, KN13, KN18, KN21, KN22]- [GC4718]
7 | 13 | 8 |  | 21 |  |  | Manganese(II)bis-octanoato[(4aS,13aS,17aS,21aS)-1,2,3,4,4a,5,6,12,13,13a,14,15,16, 17,17a,18,19,20,21,21a-Eicosahydro-11,7-nitrilo-7H-dibenzo[b,h][1,4,7,10] tetraazacycloheptadecine-KN5, KN13, KN18, KN21, KN22]- [GC4710]
8 | 13 |  |  |  |  |  | Manganese(II)bis-L--valinato[(4aS,13aS,17aS,21aS)-1,2,3,4,4a,5,6,12,13,13a,14,15,16,17,17a,18,19,20,21,21a- Eicosahydro-11,7-nitrilo-7H-dibenzo[b,h][1,4,7,10] tetraazacyclo-heptadecine-KN5, KN13, KN18, KN21, KN22]- [GC4746]
9 | 14 |  |  |  |  |  | C[C@@H]1CN[C@@H]2CCCC[C@H]2NCc2cccc(n2)CN[C@@H]2CCCC[C@H]2N1.[Cl][Mn][Cl] [GC4444, reference compound]
10 |  |  | 18 | 21 |  |  | Manganese(II)bis-n-Butyrato[(4aS,13aS,17aS,21aS)-1,2,3,4,4a,5,6,12,13,13a,14,15,16,17,17a,18,19,20,21,21a-Eicosahydro-11,7-nitrilo-7H-dibenzo[b,h][1,4,7,10] tetraazacycloheptadecine-KN5, KN13, KN18, KN21, KN22]- [GC4713]
